The subject of assay [1] is Chikungunya Virus (CHIKV) strain LR2006-OPY1 with GFP modification (CHIK 5'LR). In words: microbe, parasite or virus in culture. As to conditions: HEK-293T, infected HEK293T cells; for IC50: second round of experiments, range stated for listed compounds, read-out: IC50 (CHIKV inhibition); for inhibition at 1 µM: compounds at 1 μM, MOI 0.1, 22 h, mean of 2 experiments, values above 100 lowered to 100, read-out: % CHIKV Inhibition Mean (n = 2). The class given is cell-based. How it is done: The ability of the compounds to inhibit viral replication was assessed with an experiment in which infected cells were treated by compounds of formula (Ie) at 1 μM. As a positive control for inhibition of Chikungunya, Ribavirin was used. Toxicity of the compounds was assessed in parallel.
Human embryonic kidney cells 293T (HEK293T, CRL-11268) were maintained in Dulbecco's modified Eagle's Medium (DMEM, 31966-021, Thermo Fisher Scientific) supplemented with 10% of fetal bovine serum (FBS), penicillin and streptomycin. After removal of the medium, cells were washed with Ca^2+ and Mg^2+-free salt solution to remove all traces of serum. After aspiration of wash solution, cells were dissociated with 0.25% Trypsin-EDTA solution and incubated 30 s at least in 37° C. incubator. Concentration of cell suspension was determined by an automatic cell counter (EVE, NanoEntek) and, if needed, adjusted to 0.33×10^6 cells/mL with DMEM medium supplemented with 10% FBS.
100 μL of the cell suspension were dispatched in a ViewPlate-96 Black (6005182, PerkinElmer) and in a transparent 96-well cell culture plate (655180, Greiner bio-one). After an incubation for 24 h at 37° C. under 5% of CO2, compounds were added at the proper concentration.
An intermediate dilution was prepared with DMSO (D8418, Sigma) at 2 mM in a 96-well V-bottom microplate from the stock solution:
Mix 1 μL of the 50 mM stock library in 25 μL of DMSO.
Mix 2 μL of the 25 mM stock library in 25 μL of DMSO.
An intermediate dilution was prepared with DMSO (D8418, Sigma) at 25 mM in a 96-well V-bottom microplate from the stock solution:
Mix 2 μL of the 50 mM stock library in 2 μL of DMSO.
Perform serial dilution in 2 μL of DMSO 13 times to reach 0.0015 mM. Proceed as follows in table III:
For both screen and determination of IC50, 1 μL of each solution was added in a 1 mL Masterblock 96 wells (Greiner bio-one, 780261) containing 1 mL of DMEM medium. As a positive control, 5 μL of a 80 mM Ribavirin solution (R9644, Sigma) is added to 1 mL of DMEM. On the other hand, DMSO is used as a negative control.
[…]. Vector Borne Zoonotic Dis. 2006; 6(4)). This modified virus was used to infect cells at MOI 0.1. […].
Medium was removed after 22 h at 37° C. under 5% of CO2 and cells were washed as described above. 60 μL of RIPA buffer (50 mM Tris-HCl pH8, 100 mM NaCl, 1 mM MgCl2, 1% Triton X-100) was added to cells and incubated for at least 20 min before reading fluorescence signal. Pierce 660 nm Protein Assay Reagent (22660, Thermo scientific) was used to normalize fluorescence signal by protein quantity.
• A first round of experiments has been performed wherein the results are expressed as inhibition percentage, which is calculated as follows, through the following steps: • 1. Fluorescence intensity (FI)/Absorbance 660 nm (A660)=A
This ratio allows considering the infection (GFP virus) to the protein amount. • 2. A′=A−background noise of non-infected plate, • 3. B=Fluorescence intensity (FI)/Absorbance 660 nm (A660) of infected but non treated plates, • 4. C=A′/B, which is then converted as the percentage of infection after treatment, compared to non-treated sample, and subsequently as the infection percentage. For instance, a value of 100 in Table IV here below means that, after treatment, the signal attributed to GFP fluorescence is abolished, which is correlated to the absence of infection. • 5. C′=100−C
This value corresponds to the inhibition's percentage.
The following Table IV encompasses said C′ value for some compounds, as calculated above with a mean of 2 experiments, and corresponding standard deviation.
Some values were originally above 100. In these cases, the value has been lowered to 100. This means that some molecules also have an impact on the viability of the cells. In other words, the A value may be lower than the background noise.
Moreover, for each measure, the test was performed with Ribavirin as control. The value of the inhibition percentage was checked, giving 100%.

A further assay relates to DENV-2 strain 16681. Kind of assay: DENV-2 inhibition (cytopathic effect inhibition) using Viral ToxGlo assay in A549 cells. The class given is cell-based, Dengue 2 virus. As to conditions: Dengue virus, DENV2, 120 h, compounds at 10 μM, MOI 0.5, 5 days p.i., read-out: % DENV-2 Inhibition Mean (n = 3). Here is the method:
Protocol for Screening Antiviral Compounds for DENV-2 Inhibition and Cytotoxicity Using Viral ToxGlo Assay
A549 cells were maintained in Dulbecco's Modified Eagle Medium (DMEM) supplemented with 10% fetal bovine serum, 100 U/ml penicillin and 100 μg/ml streptomycin. For the purposes of the screening assay they were grown to 90% confluency, trypsinized and recovered. The trypsin was neutralised with cell culture media and cells were centrifuged at 150×g for 5 minutes before discarding the supernatant and resuspending cell pellet in assay media (DMEM supplemented with 2% fetal bovine serum and 100 U/ml penicillin and 100 μg/ml streptomycin). The cells were seeded into 96-well white clear-bottomed cell culture plates at a density of 1.0×10^4 cells/well in 50 μl. For the media/background control column assay media only was added. Cell plates were placed in a humid chamber and incubated overnight at 37° C./5% CO2. After overnight incubation cells were checked for confluency and healthy appearance.
Test compounds were prepared at a final concentration of 10 μM in a maximum DMSO concentration of 1% (final assay concentration maximal 0.1% DMSO) and added to the cell plates in volumes of 10 μl. For cell control and virus control wells the test article solvent only was added. As a positive inhibition control, 7-Deaza-2′-C-methyladenosine was added at 100 μM in 3 wells. Virus (DENV-2 strain 16681) or assay media for cytotoxicity test wells and media/cell control wells was added immediately after test articles at an MOI of 0.5, 40 for 96 well plates respectively. Virus suspension was prepared by thawing DENV-2 frozen stocks and diluting to the required concentration of plaque forming units in assay media.
Cell plates were further incubated inside a humid chamber for 5 days p.i at 37° C./5% CO2. After the incubation period cells were observed under the microscope to check for characteristic cytopathic effect in virus control wells and healthy cells in the cell control wells. After plates were adjusted to room temperature 20 μl Viral ToxGlo (Promega) was added to each well of the 96-well cell plates. Plates were incubated at room temperature for 5 minutes before measuring the luminescence on a spectrophotometer (Envision, PerkinElmer).
DENV-2 inhibition was calculated as percentage of cytopathic effect inhibition relative to the virus control and cytotoxicity as percentage of cell survival relative to cell control wells.
(In general: Damage to the host cells serves as the signal in cytopathic effect assays.)

The subject of another assay is RSV A2. In words: RSV inhibition (cytopathic effect inhibition) using Viral ToxGlo assay in HEp-2 cells. It counts as cell-based. As to conditions: human respiratory syncytial virus, RSV A2, MOI 0.5, HEp-2 cells, 72 h p.i. The procedure, abridged: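 HEp-2 cells in EMEM with 2% FBS were infected with RSV A2 at MOI 0.5 immediately after compound (≤1% DMSO) and incubated 72 h at 37 °C. Viral ToxGlo luminescence gave % cytopathic effect inhibition versus virus control, plus cytotoxicity versus cell control; EC50 derived from dose-response.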

By IC50 is commonly meant the concentration that gives 50% inhibition. A word on the inhibition: it is the percentage by which the read-out fell short of the control. What is called EC50 is the concentration that produces a half-maximal response.

On to `O=C(NCCC1CCCC1)c1cccc(Nc2ccc(OCc3ccccn3)c(O)c2)c1` [Compound 53, N-(2-cyclopentylethyl)-3-((3-hydroxy-4-(pyridin-2-ylmethoxy)phenyl)amino)benzamide], for which the half-inhibitory concentration (IC50) in assay [1] was 0.001 to 0.4 µM.

`O=C(NCCC1CCCC1)c1cccc(Nc2ccc(OCc3ccccc3)cc2)c1` [Compound 52, 3-((4-(benzyloxy)phenyl)amino)-N-(2-cyclopentylethyl)benzamide]: the inhibition at 1 µM in assay [1] is 99%. Consider `COc1cc(Nc2cccc(C(=O)NCCC3CCCC3)c2)ccc1OCc1ccccn1` [Compound 43, N-(2-cyclopentylethyl)-3-((3-methoxy-4-(pyridin-2-ylmethoxy)phenyl)amino)benzamide], for which the inhibition at 10 µM in the assay on DENV-2 strain 16681 was determined as 71%. Besides, the inhibition at 1 µM in assay [1] turned out to be 100%. With `O=C(NCCC1CCCC1)c1cccc(Nc2ccc(OCc3ccccc3F)cc2)c1` [Compound 50, N-(2-cyclopentylethyl)-3-((4-((2-fluorobenzyl)oxy)phenyl)amino)benzamide], the inhibition at 1 µM in assay [1] worked out at 100%. Turning to `Cc1cc(OCc2ccccn2)ccc1Nc1cccc(C(=O)NCCC(C)C)c1` [Compound 54, N-isopentyl-3-((2-methyl-4-(pyridin-2-ylmethoxy)phenyl)amino)benzamide], the concentration giving a half-maximal response (EC50) in the assay on RSV A2 stood at 0.177 µM. Further, the IC50 in assay [1] lay in the range of 0.001 to 0.4 µM. Regarding `CCc1cc(OCc2ccccn2)ccc1Nc1cccc(C(=O)NCCC2CCCC2)c1` [Compound 58, N-(2-cyclopentylethyl)-3-((2-ethyl-4-(pyridin-2-ylmethoxy)phenyl)amino)benzamide], in assay [1], the IC50 lay in the range of 0.001 to 0.4 µM. Consider `O=C(NCCC1CCCC1)c1cccc(Nc2ccc(OCc3ccccn3)nc2)c1` [Compound 41, N-(2-cyclopentylethyl)-3-((6-(pyridin-2-ylmethoxy)pyridin-3-yl)amino)benzamide], for which, in assay [1], the inhibition at 1 µM was 99%. Still for that read-out and setting: then `N#Cc1ccccc1COc1ccc(Nc2cccc(C(=O)NCCC3CCCC3)c2)cc1` [Compound 51, 3-((4-((2-cyanobenzyl)oxy)phenyl)amino)-N-(2-cyclopentylethyl)benzamide], with 100%.

For `CCc1cc(OCc2ccccn2)ccc1Nc1cccc(C(=O)NCCC(C)C)c1` [Compound 57, 3-((2-ethyl-4-(pyridin-2-ylmethoxy)phenyl)amino)-N-isopentylbenzamide], the EC50 in the assay on RSV A2 is 0.026 µM. The concentration for half-maximal inhibition (IC50) in assay [1] is 0.001 to 0.4 µM. Turning to `O=C(NCCC1CCCC1)c1cccc(Nc2ccc(OCc3ccccn3)cc2)c1` [Compound 36, N-(2-cyclopentylethyl)-3-((4-(pyridin-2-ylmethoxy)phenyl)amino)benzamide], the EC50 in the assay with RSV A2 is 0.232 µM. The inhibition at 1 µM in assay [1] amounted to 99%. `c1ccc(COc2ccc(Nc3cccc(OCCCC4CCCC4)c3)cc2)nc1` [Compound 73, 3-(3-cyclopentylpropoxy)-N-(4-(pyridin-2-ylmethoxy)phenyl)aniline]: the inhibition at 1 µM in assay [1] was determined as 100%.

Consider `Cc1cc(OCc2ccccc2)ccc1Nc1cccc(NC(=O)CCC2CCCCC2)c1` [Compound 132, N-(3-{[4-(benzyloxy)-2-methylphenyl]amino}phenyl)-3-cyclohexylpropanamide], for which the EC50 in the assay with RSV A2 came to 0.228 µM. Besides, the inhibition at 10 µM in the assay on DENV-2 strain 16681 turned out to be 71%. The like results for `O=C(CCC1CCCCC1)Nc1cccc(Nc2ccc(OCc3ccccc3)cc2F)c1` [Compound 150, N-(3-{[4-(benzyloxy)-2-fluorophenyl]amino}phenyl)-3-cyclohexylpropanamide] were, in that order, 0.597 µM and 78%. As for `CC(C)CCNC(=O)c1cccc(Nc2ccc(OCc3ccccn3)cc2)c1` [Compound 37, N-isopentyl-3-((4-(pyridin-2-ylmethoxy)phenyl)amino)benzamide], the inhibition at 1 µM in assay [1] was 100%.

With `Cc1cc(OCc2ccccn2)ccc1Nc1cccc(C(=O)NCCC2CC(F)(F)C2)c1` [Compound 70, N-(2-(3,3-difluorocyclobutyl)ethyl)-3-((2-methyl-4-(pyridin-2-ylmethoxy)phenyl)amino)benzamide], the concentration for a half-maximal effect (EC50) in the assay on RSV A2 came out at 0.66 µM. For the same compound, in assay [1], the concentration for half-maximal inhibition (IC50) is 0.001 to 0.4 µM.

`Cc1cc(OCc2ccccn2)ccc1Nc1cccc(C(=O)NCCC2CCCC2)c1` [Compound 39, N-(2-cyclopentylethyl)-3-((2-methyl-4-(pyridin-2-ylmethoxy)phenyl)amino)benzamide]: the EC50 in the assay with RSV A2 was 0.185 µM. In addition, the inhibition at 1 µM in assay [1] turned out to be 98%.

For `Cc1cc(OCc2ccccn2)ccc1Nc1cccc(C(=O)NC2CCCC2)c1` [Compound 71, N-cyclopentyl-3-((2-methyl-4-(pyridin-2-ylmethoxy)phenyl)amino)benzamide], the EC50 in the assay with RSV A2 stood at 0.185 µM. In addition, the concentration for half-maximal inhibition (IC50) in assay [1] fell in the range of 0.001 to 0.4 µM. For the compound `Cc1cc(OCc2ccc(F)cc2)ccc1Nc1ccc(F)c(NC(=O)CCC2CCCCC2)c1` [Compound 121, 3-cyclohexyl-N-[2-fluoro-5-({4-[(4-fluorophenyl)methoxy]-2-methylphenyl}amino)phenyl]propanamide], the concentration giving a half-maximal response (EC50) with RSV A2 is 0.116 µM. The inhibition at 10 µM in the assay on DENV-2 strain 16681 is 59%. As to `Cc1cc(OCc2ccccn2)ccc1Nc1cccc(C(=O)NCCC2CCCCC2)c1` [Compound 47, N-(2-cyclohexylethyl)-3-((2-methyl-4-(pyridin-2-ylmethoxy)phenyl)amino)benzamide], the EC50 in the assay with RSV A2 is 0.182 µM. In assay [1], the inhibition at 1 µM came out at 96%.

Source of the values: patent US12421206B2, “Aryl-n-aryl derivatives for treating a RNA virus infection” (ABIVAX, priority 2018, dated 2025).
